# Earlier results in patent US10463731B2, “Adjuvant combinations comprising alpha-galactosylceramide or iGb3, CD40 agonists and antigen” (IMMURX, INC., priority 2007, dated 2019).
# Tested on: tumors
# Conditions: monotherapy, mice
smiles,measurement,value
"CCCCCCCCCCCCCCCCCCCCCCCCCC(=O)N[C@@H](CO[C@H]1O[C@H](CO)[C@H](O)[C@H](O)[C@H]1O)[C@H](O)[C@H](O)CCCCCCCCCCCCCC [α-Gal-Cer, alpha-galactosylceramide]",enhancement of immunity to tumors,limited success
